The record followed here is patent publication US11566041B2, “Nucleotide prodrug compounds” (Ligand Pharmaceuticals Incorporated, priority 2020, dated 2023).

Molecules are shown by their SMILES. Some results are limits rather than exact numbers.

Data set [1] can be described thus: Tissue distribution following oral administration: blood metabolite nucleoside and liver nucleoside triphosphate levels. Also noted: species or system rats. The following applies: rat, in vivo, 5 mg/kg; for Blood Nuc level at 1 hour / Liver NTP level at 1 hour / Blood Nuc level at 5 hours / Liver NTP level at 5 hours: po. As to the method:
IV Remdesivir (2 mg/kg), oral Remdesevir (5 mg/kg) and oral test compound (5 mg/kg) were administered to rats. Oral administration was to fasted rats by oral gavage. Plasma concentrations of the metabolite nucleoside in circulation were determined by HPLC-UV, and the liver concentrations of the active triphosphate were measured by LC-MS using standard chromatography methods.
FIG. 4 is a graph showing the ratio of (concentration of corresponding nucleoside in the liver)/(concentration of corresponding nucleoside in the blood) after 1 and 5 hours from the second study.
Table 1 contains the blood and liver levels after 1 and 5 hours for a number of test compounds compared to oral Remdesivir.

A short description of data set [2]: Tissue distribution following inhalation administration: blood and lung metabolite nucleoside and lung triphosphate levels. In kind it is in vivo, rats. As to the method: Remdesivir or the indicated test compound was administered at 2 mg/kg to rats by an inhalation route. The lung concentrations of the metabolite nucleoside and its triphosphate were measured by LC-MS using standard chromatography methods.

Turning to `CCOC(=O)c1ccccc1COP1(=O)OC[C@H]2O[C@@](C#N)(c3ccc4c(N)ncnn34)[C@H](O)[C@@H]2O1` (stereo partly drawn) [Compound 101, Ethyl 2-((((4aR,6R,7R,7aS)-6-(4-aminopyrrolo[2,1-f][1,2,4]triazin-7-yl)-6-cyano-7-hydroxy-2-oxidotetrahydro-4H-furo[3,2-d][1,3,2]dioxaphosphinin-2-yl)oxy)methyl)benzoate], in data set [1], the “Blood Nuc level at 1 hour” value is reported as below 1x, the “Liver NTP level at 1 hour” value is at least 2x, the “Blood Nuc level at 5 hours” value is on record as below 1x and the “Liver NTP level at 5 hours” value is on record as at least 2x.

Consider `CCOC(=O)c1ccccc1COP1(=O)OC[C@H]2O[C@@](C#N)(c3ccc4c(N)ncnn34)[C@H](OC(C)=O)[C@@H]2O1` (stereo partly drawn) [Compound 105, Ethyl 2-((((4aR,6R,7R,7aR)-7-acetoxy-6-(4-aminopyrrolo[2,1-f][1,2,4]triazin-7-yl)-6-cyano-2-oxidotetrahydro-4H-furo[3,2-d][1,3,2]dioxaphosphinin-2-yl)oxy)methyl)benzoate], for which, in data set [1], the “Liver exposure of nucleoside triphosphate relative to IV or oral Remdesivir” value was “significantly greater liver exposure than either IV or oral Remdesivir”, the “Blood Nuc level at 1 hour” value was at least 2x*, the “Liver NTP level at 1 hour” value is given as at least 2x and the “Blood Nuc level at 5 hours” value was at least 2x. In addition, the “Liver NTP level at 5 hours” value in data set [1] is at least 2x. Further, in data set [2] (rat, in vivo, 2 mg/kg), the “Lung levels of the metabolite nucleoside, exposure relative to Remdesivir” value was “more than 4 times” and the “Nucleoside triphosphate levels in the lung” value was “significant lung exposure of the triphosphate”.

As for `CCOC(=O)c1ccccc1COP1(=O)OC[C@H]2O[C@@](C#N)(c3ccc4c(N)ncnn34)[C@H](OC(=O)CC)[C@@H]2O1` (stereo partly drawn) [Compound 106, Ethyl 2-((((4aR,6R,7R,7aR)-6-(4-aminopyrrolo[2,1-f][1,2,4]triazin-7-yl)-6-cyano-2-oxido-7-(propionyloxy)tetrahydro-4H-furo[3,2-d][1,3,2]dioxaphosphinin-2-yl)oxy)methyl)benzoate], in data set [1], the “Blood Nuc level at 1 hour” value is recorded as at least 2x, the “Liver NTP level at 1 hour” value is on record as at least 2x, the “Blood Nuc level at 5 hours” value is listed as at least 2x and the “Liver NTP level at 5 hours” value was at least 2x.

Consider `CCC(CC)COC(=O)[C@H](C)N[P@](=O)(OC[C@H]1O[C@@](C#N)(c2ccc3c(N)ncnn23)[C@H](O)[C@@H]1O)Oc1ccccc1` [Remdesivir, reference compound], for which the “Nucleoside triphosphate levels in the lung” value in data set [2] (rats, 2 mg/kg inhalation route, FIG. 7) is listed as “below the level of quantitation”.
